Patent US20060292186A1, “Self-nanoemulsifying oily formulation for the administration of poorly water-soluble drugs” (Novagali Pharma SA, priority 2003, published 2006)

Columns and labels:
[1] = Dose versus plasma AUC pharmacokinetic study of paclitaxel SNEOF after cyclosporin A oral pre-treatment in wild type mice; type: in vivo, FVB Wild type Mice; conditions: 10-60 mg/kg p.o., CsA constant at 10 mg/kg
Experimental: Each cohort consisted of 20 mice. At the specified times, animals were anaesthetized using metofane. After fixation on their back, with their chest in an upright position blood was collected by cardiac puncture using a 1 mL polypropylene syringe fitted with 25 g needle. Blood was transferred immediately into tubes containing potassium EDTA as anticoagulant and mixed by inversion. Blood samples were centrifuged vial for 5 min at 4000 g. The supernatant plasma fraction was transferred to a clean tube with appropriate label and stored at -20° C. until analyses. […] Plasma samples for subsequent analysis were obtained from all animals. […] Plasma concentration data were reported. Plasma concentrations versus time curves were fitted using the […] software package (version 3.0) and pharmacokinetic parameters: […]

[2] = humans, without enhancer; cited from earlier work

## CC(=O)O[C@H]1C(=O)[C@@]2(C)[C@H]([C@H](OC(=O)c3ccccc3)[C@]3(O)C[C@H](OC(=O)[C@H](O)[C@@H](NC(=O)c4ccccc4)c4ccccc4)C(C)=C1C3(C)C)[C@]1(OC(C)=O)CO[C@@H]1C[C@@H]2O [paclitaxel, Paclitaxel]
[1]
  linearity of oral bioavailability with dose: not linear but decreased significantly with dose
[2]
  systemic bioavailability after oral paclitaxel administration: less than 6%
